US20220364056A1, “SHORT-CHAIN FATTY ACID PENTANOATE AS ENHANCER FOR CELLULAR THERAPY AND ANTI-TUMOR THERAPY” (PHILIPPS-UNIVERSITÄT MARBURG, priority 2019, published 2022)

Assays:
human CD8+ T lymphocytes = human CD8+ T lymphocytes differentiated into CTLs, flow cytometry; format: cell-based
Method: (A and B) CD8^+ T cells isolated from spleens and LNs were polarized under Tc17-inducing conditions and treated with pentanoate for 3 days. Representative contour plots (A) and bar graphs (B) indicate the frequency of IL-17^+ and IFN-γ+ cells. Three similar experiments were performed. (C and D) CD8^+ T cells isolated from spleens and LNs were polarized under Tc9-inducing conditions and treated with pentanoate for 3 days. Representative contour plots (C) and bar graphs (D) are showing the frequency of IL-9^+ and IFN-γ+ cells. Three similar experiments were performed. (E and F) The expression of granzyme B, IFN-γ and Eomes in pentanoate-treated human CTLs was analysed by flow cytometry. Five independent experiments were performed (E). For Eomes, mean fluorescence intensity (MFI) values are shown (F, n=3).
(A) CD8^+ T cells isolated from peripheral blood of healthy donors were differentiated into CTLs in presence or absence of indicated HDACi. Representative contour plots and dot plots indicate the frequency of TNF-α+ and IFN-γ^+ cells. Data points in the graphs represent individual donors (n=4, performed in 4 independent experiments) (B-G) Phenotyping of pentanoate-treated ROR1-specific CD8^+ CAR T cells (CARROR1 T cells). (B) Experimental setup for the functional analysis is shown. (C) The cytokine secretion (IFN-γ and TNF-α) was analysed in supernatants of pentanoate-treated CARROR1 T cells by ELISA. (D) The surface expression of CD25 was measured by flow cytometry. (E) The secretion of IL-2 was detected in supernatants of CARROR1 T cells by ELISA. (F) Proliferation of CARROR1 T cells was determined by CFSE labelling. CARROR1 T cells pre-treated with pentanoate were stained with CFSE and subsequently co-cultured with […] cells in the absence of pentanoate. CD8^+ T cells without the CAR construct were used as mock control cells. […] The percentage of lysed target cells was determined in 1 hour intervals (effector-to-target cell (E:T) ratio=2.5:1). […]

STAT5 = assay: IL-2-induced phosphorylation of STAT5 in CTLs, flow cytometry; format: cell-based, murine; conditions: CTLs generated with pentanoate 3 day, IL-2 50 U/ml
Description: (A) experimental setup for investigating CTL persistence in vivo is shown. (B-D) The frequency (B, C) and total cell numbers (D) of transferred T cells (WT CD45.1^+ CTLs, WT CD45.2^+ pentanoate-treated CTLs and Foxp3^+CD45.2^+ Tregs from FIR×tiger mice) in Rag1-deficient mice on days 15 after the adoptive transfer are shown. The co-transferred Foxp3^−CD4^+ cells were excluded from the gate (B, C). In D, n=_3 mice/group/experiment, data from 2 pooled independent experiments are shown. (E) The CFSE label of transferred T cells (WT CD45.1 CTLs, WT CD45.2^+ pentanoate-treated CTLs and CD45.2^+CD4^+ T cells) in Rag1-deficient mice on days 4 after the adoptive transfer are shown (n=3 mice/group/experiment, data pooled from 2 independent experiments are shown). […] (G and H) Frequencies and cell numbers of CD25^+ CD8^+ T cells were analysed by flow cytometry on day 15 after transfer of control CTLs (CD45.1^+) and pentanoate-treated CTLs (CD45.2^+) into Rag1-deficient mice (n=3 mice/group/experiment, data pooled from 2 independent experiments). […] The phosphorylated (p)-STAT5 levels were analysed by flow cytometry (n=5, performed in 3 independent experiments). (J) The secretion of IL-2 in pentanoate-treated CTLs cultured for indicated time points was measured by ELISA (n=4, pooled from 2 independent experiments).

[1] = tested on: promoter region of Ifnγ, Tbx21 and Eomes; assay: pan-H4Ac ChIP at CTL-characteristic loci; format: cell-based, mice; conditions: 24 hours of treatment
Method: (A) Experimental design for the treatment of CTLs with the water-soluble fraction of intestinal content derived from SPF or GF mice. (B and C) Frequencies of IFN-γ- and TNF-α-producing CTLs treated with the extract from luminal content derived from indicated organs. Representative results of two experiments are shown (n=3). (D) ELISA was performed to measure the secretion of TNF-α by CLTs treated as shown in (A). (E) Quantitative measurement of total SCFA amounts in fecal samples of SPF and GF mice (n=5). (F and G) The percentage of IFN-γ^+ TNF-α^+ CTLs treated with the indicated SCFAs for three days (n=3, one of three independent experiments is shown). (H) The secretion of TNF-α from CTLs treated with SCFAs was determined by ELISA (n=3, one of two independent experiments is shown). (I) The fluorogenic HDAC assay was applied to measure the HDAC inhibitory activity of SCFAs on CTLs. The value for unstimulated CTLs was arbitrarily set to 1.0. Four independent experiments were performed. (J and K) Representative contour plots (J) and bar graphs (K) showing the frequency of IFN-γ+ and TNF-α+ cells after pentanoate (2 mM) or VPA (0.5 mM) administration. Three similar experiments were performed. (L and M) The frequency of Eomes- and T-bet-expressing CTLs treated with pentanoate (2 mM) or VPA (0.5 mM) for three days was analyzed by flow cytometry (n=4). […]

SMILES: CCCCC(=O)O [pentanoate]
- expression of granzyme B, IFN-γ and Eomes (human CD8+ T lymphocytes): enhancing the expression
- expression of TNF-α and IFN-γ (human CD8+ T lymphocytes; healthy donors): enhancing the expression
- STAT5 activity in response to IL-2 (STAT5): stronger STAT5 activity
- H4 acetylation at the promoter region of Ifnγ, Tbx21 and Eomes [1]: enhance H4 acetylation
